Experimental data taken from patent publication US20070190046A1, “Anti-abeta antibody” (Eli Lilly and Company, priority 2004, published 2007).

Tested on: Aβ peptide naturally expressed by HEK 293 cells
Assay: Acid urea gel / western blot analysis of Aβ peptide in purified antibody from HEK 293 cell culture with γ-secretase inhibitor
Format: cell-based, human
Details: for FL (Full length hAβ40) / T2 (N-terminal truncated hAβ40, #2): no-inhibitor control 70; for T1 (N-terminal truncated hAβ40, #1): no-inhibitor control 38; for Total hAβ40: no-inhibitor control 178
Protocol: A γ-secretase inhibitor, [drawing 1] (WO 98/28268), is added to the HEK 293 cell culture in which an anti-Aβ antibody is being expressed to reduce the amount of Aβ peptide naturally expressed by cells. Cell culture samples for this example include a control culture with no inhibitor added, a culture in which 1 nM inhibitor is added at time=0 and every 24 hours thereafter for 5 days (for a 5 day transfection), and a culture in which 1 nM inhibitor is added at time=0. These samples are purified using a Protein A column as well as size exclusion chromatography. The samples are analyzed for Aβ peptide content by acid-urea gel separation and subsequent western blot analysis as detailed below.
The following protocol describes a technique for formic acid denaturation of samples and subsequent electrophoresis through an acid-urea polyacrylamide matrix:
• 1) Clean and assemble acrylamide gel plates for casting. For example, Hoeffer plates into a casting stand (16 cm×14 cm plates with 1.5 mm spacers). Clean plates thoroughly with detergent, rinse in distilled H2O(dH2O), rinse with acetone, and finally rinse with 100% EtOH. • 2) Mark plates at 10 cm (22% separating gel) and 11.75 cm (10% step gel). Making the Gel and Gel Concentrations • 1) Acrylamide (40% solution, such as pre-made Bio-Rad/cat#161-0148)
• Add urea, acrylamide, glacial acetic acid (GAA), and dH2O into 50 mL conical tubes. Vortex briefly and incubate in a 55° C. water bath. Vortex every few minutes until the urea is completely in solution. Degas 22% and 10% solutions and place solutions on ice, leaving the 4% stacker in the water bath. Pouring the Gel (at Room Temperature) • 1) Add N,N,N′,N′-tetramethylethylenediamine (TEMED) to the 22% solution and gently invert several times to mix. Next add the 10% APS (ammonium persulfate) and invert several times. Using a 25 mL pipette, slowly pour solution between the plates until it reaches the 10 cm mark. • 2) Carefully add a 750 μL overlay of 5% GAA. Use a P1000 pipette to very slowly let the 5% GAA run down one side of the glass plates onto the 22% resolving gel. • 3) Allow to polymerize at room temperature for at least 1 hour. • 4) Add the TEMED and 10% APS to the 10%-acrylamide solution in the same manner as for the 22%. Remove the overlay and add the solution until reaching the second mark at 11.75 cm. Again, carefully pour a 750 μL overlay of 5% GAA as above. Allow the gel to polymerize for 30 minutes. • 5) Prior to adding the 4% stacker solution, place the gel stand in a 37° C. incubator for 15 minutes to warm gels. This aids in the wells polymerizing correctly. Degas the 4% stacker solution and keep at 55° C. Remove the overlay. Add the TEMED, invert several times, and then add the 10% APS. Quickly pour this solution and insert a clean-dry 12-well comb (or a 15-well comb). After pouring the stacker, place the stand back in the incubator for 15 minutes then remove. Allow to polymerize on the bench top. The stacker will take at least 1.5 hours to polymerize completely. • *Note: During the polymerization steps, air pockets may appear in the resolving gel. These pockets form due to the change in temperature of the gel during and after polymerization. […] Sample Preparation • Analysis upwards of 3 mg of protein in a single lane will achieve reasonable band results. Conditions for analyzing protein are as follows.
Sample: • 30 μL of […] protein (maximum concentration of protein) • 80 μL formic acid (98%) (ICN cat#15162-90) • 20 μL Acid Loading Buffer (80% formic acid, 60% sucrose and 0.02% methyl green; • Make buffer by dissolving 6 g sucrose in ˜8 mL of ˜99% formic acid. Heat and agitate the mixture. After the sucrose has dissolved, the volume of the solution is adjusted to 10 mL with ˜99% formic acid. Add 2 μL of 1% methyl green solution.) • 1 μl β-Mercaptoethanol • *Note: Adjust volumes as needed. […]

[1] = HEK 293 culture, 1 nM inhibitor added at time=0 only
[2] = HEK 293 culture, 1 nM inhibitor at time=0 and every 24 hours for 5 days

SMILES: C[C@H](NC(=O)[C@@H](O)c1cc(F)cc(F)c1)C(=O)N[C@@H]1C(=O)N(C)c2ccccc2-c2ccccc21 [Inhibitor]
- FL (Full length hAβ40) (HEK 293 culture expressing anti-Aβ antibody, 1 nM inhibitor added at time=0 and every 24 hours for 5 days): 4 pg/μg IgG
- T1 (N-terminal truncated hAβ40, #1) [1]: 27 pg/μg IgG
- FL (Full length hAβ40) [1]: 56 pg/μg IgG
- T2 (N-terminal truncated hAβ40, #2) [1]: 52 pg/μg IgG
- Total hAβ40 [1]: 135 pg/μg IgG
- T1 (N-terminal truncated hAβ40, #1) [2]: 0 pg/μg IgG
- T2 (N-terminal truncated hAβ40, #2) [2]: 3 pg/μg IgG
- Total hAβ40 [2]: 7 pg/μg IgG
